Assay results as given in patent US20120322752A1, “SOLID DISPERSIONS CONTAINING 20-O-beta-D-GLUCOPYRANOSYL-20(S)-PROTOPANAXADIOL” (priority 2009, published 2012).

Experiments:
[1] = oral administration; cited from earlier work
[2] = aqueous solution including 40% of a cosolvent and 10% of a surfactant or inclusion compound forming agent (hydroxypropyl-β-cyclodextrin); cited from earlier work
[3] = Dissolution test (USP paddle method, purified water); type: physicochemical; details: after 3 hours; 900 mL purified water, paddle 50 rpm, 25 mg IH-901 equivalent
Procedure: The dissolution profile of a drug from the solid dispersion prepared in Example 2 was evaluated. IH-901, which had been used to prepare the solid dispersion of […], was used as a control group. The dissolution test was carried out under the conditions that the second method (paddle method) of the dissolution test methods in the general test method of the United states Phamacopoeia was used, 900 mL of purified water was used as a test liquid, and the rotational speed of a paddle was 50 rpm. 25 mg of IH-901 (control group) or the solid dispersion prepared in Example 2 corresponding to 25 mg of IH-901 was dissolved in a dissolution liquid, left for 180 minutes and then filtered. Then, the content of IH-901 in the filtered solution was measured by high performance liquid chromatography. The high performance liquid chromatograph is commercially available from Hitachi Co., Ltd. The analysis of high performance liquid chromatography was conducted under the conditions of a C18 column (Luna, 5 um, 250 mm, Phenomenex Corp., U.S.A), mobile phase of acetonitrile:water (70:30), a flow rate of 1 mL/min, a detection wavelength of 205 nm and an injection volume of 50 ul. In FIG. 1, the X-axis represents time passage, and the Y-axis represents dissolution rate (%). Further, in FIG. 1, the raw material is represented as ◯, and the solid dispersion prepared in Example 2 is represented by […].

In the case of `CC(C)=CCC[C@](C)(O[C@@H]1O[C@H](CO)[C@@H](O)[C@H](O)[C@H]1O)[C@H]1CC[C@]2(C)[C@@H]1[C@H](O)C[C@@H]1[C@@]3(C)CC[C@H](O)C(C)(C)[C@@H]3CC[C@]12C` [IH-901, 20-O-β-D-glucopyranosyl-20(S)-protopanaxadiol], the bioavailability [1] is given as 3.5%, the “solubility of IH-901 in an aqueous solution” value [2] is given as ≤ 10000 µg/mL and the dissolution rate [3] is given as “about 3%”.
